Experimental findings from patent US6828450B2, “Triptycene analogs” (Kansas State University Research Foundation, priority 2000, dated 2004) are described below.

The subject of assay [1] is L1210 cells. The experiment in a line: RNA synthesis (3H-uridine incorporation) in L1210 cells. It is filed as cell-based, murine. The procedure:
FIG. 16. Comparison of the concentration-dependent inhibitions of RNA synthesis by the TT analog TT2 (●) and DAU (∘) in L1210 cells in vitro. […] RNA synthesis in vehicle-treated control cells was 47,117±3,204 cpm (100±7%; striped area). The blank value (1,746±155 cpm) for cells incubated and pulse-labeled at 2° C. with 2 μCi of ^3H-uridine has been substracted from the results.
(§1) Except when otherwise specified, the cells were incubated at 37° C. for 90 min in the presence or absence of drugs and then pulse-labeled for an additional 30 min with 1 μCi of [methyl-^3H]thymidine (50 Ci/mmol; Amersham Corp., Arlington Heights, Ill.) to estimate the rate of DNA synthesis. […] After drying the filters, the radioactivity bound to the acid-precipitable material was determined by liquid scintillation counting (LSC) in 10 ml of Bio-Safe NA (Researeh Products International Corp., Mount Prospect, Ill.).

In assay [2] the test system is L1210 cells. The experiment in a line: Protein synthesis (3H-leucine incorporation) in L1210 cells. It is filed as cell-based, murine. As for the experimental part:
FIG. 17. Comparison of the concentration-dependent inhibitions of protein synthesis by the TT analog TT2 (●) and DAU (∘) in L1210 cells in vitro. […] Protein synthesis in vehicle-treated control cells was 13,812±1,070 cpm (100±8%; striped area). The blank value (2,436±298 cpm) for cells incubated and pulse-labeled at 2° C. with 2.5 μCi of ^3H-leucine has been substracted from the results.
as §1

For assay [3], the system named is HL-60-R8 cells. Description: DNA cleavage in HL-60-R8 cells. It counts as cell-based, human. Conditions: HL-60-R8, 24 h. As for the experimental part:
FIG. 23. Comparison of the concentration-dependent inductions of DNA cleavage by DAU (open symbols in A) and TT2 (closed symbols in B) at 24 h in HL-60-S (circles), HL-60-RV (squares) and HL-60-R8 (triangles) cells containing ^3H-prelabeled DNA in vitro. Results are expressed as [cpm in supernatant/cpm in supernatant+pellet]×100 at 24 h. For untreated controls (14.7±1.7% DNA fragmentation, striped areas), the supernatant (DNA fragments) is 12,815±1,358 cpm and the pellet (intact DNA) is 74,406±9,078 cpm.
The MDR HL-60-RV and HL-60-R8 cells were developed in Melvin S. Center's laboratory (Kansas State University) and similarly maintained in RPMI 1640 medium in the absence of drugs (Marsh W, et al, Cancer Res 46: 4053-4057, 1986; McGrath T et al, and Center M S: Biochem Biophys Res Commun 145: 1171-1176, 1987; Marsh W and Center M S: Cancer Res 47: 5080-5086, 1987; McGrath T, et al, Biochem Pharmacol 38: 3611-3619, 1989; Marquardt D, et al, Cancer Res 50: 1426-1430, 1990; Marquardt D and Center M S: J Natl Cancer Inst 83: 1089-1109, 1991; Krishnamachary N and Center M S; Cancer Res 53: 3658-3661, 1993). Every 4 weeks, these HL-60-RV and HL-60-R8 sublines were exposed to 41 nM DAU for 48 h to stabilize their MDR phenotype. […] RFs were determined by dividing the IC50 of the MDR cells by that of the sensitive WT parent cell line. […]

Several values for one entry are separate records, joined by “and”; a condition that tells them apart may be missing. Equal values may be shown once.

With `COc1cccc2c1C(=O)c1c(O)c3c(c(O)c1C2=O)C[C@@](O)(C(C)=O)C[C@@H]3O[C@H]1C[C@H](N)[C@H](O)[C@H](C)O1` [DAU, daunomycin, reference compound], the “times DAU inhibits RNA synthesis more effectively than TT2” value in assay [1] (L1210) is “about 7.5 times”. Also, in assay [2] (L1210), the “times DAU inhibits protein synthesis more effectively than TT2” value is reported as about 3 times. Besides, the “reduction of the peak of maximal DNA cleavage relative to HL-60-S cells” value in assay [3] worked out at 60%.
For `COC1=CC(=O)C2=C(C1=O)C1C3=C(C(=O)C=CC3=O)C2c2ccccc21` (stereo not drawn) [TT2, 2-Methoxy-9,10-dihydro-9,10-[1′,2′]benzenoanthracene-1,4,5,8-tetraone], the IC50 in assay [1] (3 h drug + 1 h pulse-labeling, read-out: IC50, inhibition of RNA synthesis in L1210 cells) was 6 µM and ~6 µM; in assay [2] (3 h drug + 1 h pulse-labeling, read-out: IC50, inhibition of protein synthesis in L1210 cells), 6 µM and ~6 µM. Besides, the “reduction of the peak of maximal DNA cleavage relative to HL-60-S cells” value in assay [3] is on record as 35%.
